# Biological target: Tie-2 (Homo sapiens, UniProt Q02763)
# Experiment: Tie-2 tyrosine kinase activity assay (luciferase/luciferin ATP consumption with pEY substrate, or 33P-ATP incorporation)
# Type: biochemical
# Conditions: human enzyme Tie-2
# Method: One measure of inhibition is Ki. […] The Ki for a compound is determined from the IC50 based on three assumptions. First, only one compound molecule binds to the enzyme and there is no cooperativity. […] Third, the enzymatic rate of the enzyme-inhibitor complex is zero. The rate data (i.e. compound concentration) are fitted to the equation:
# [formula] where V is the observed rate, Vmax, is the rate of the free enzyme, I0 is the inhibitor concentration, E0 is the enzyme concentration, and Kd is the dissociation constant of the enzyme-inhibitor complex.
# Tyrosine kinase activity is determined by 1) measurement of kinase-dependent ATP consumption by in the presence of a generic substrate such as […], tyrosine (pEY), by luciferase/luciferin-mediated chemiluminescence or; 2) incorporation of radioactive phosphate derived from ^33P-ATP into a generic substrate which has been adsorbed onto the well surface of polystyrene microtiter plates. Phosphorylated substrate products are quantified by scintillation spectrometry.
# Inhibition is indicated as IC50 with following key: A=IC50 less than 50 nM, B=IC50 greater than 50 nM, but less than or equal to 1000 nM, C=IC50 greater than 1000 nM, but less than 10,000 nM, D=IC50 10,000 nM or greater, and “-”=no data available. The abbreviation for human enzyme, Tie-2, is defined as tyrosine kinase with immunoglobulin and EGF repeats.
# Chain of Tie-2 (Q02763 23-1124): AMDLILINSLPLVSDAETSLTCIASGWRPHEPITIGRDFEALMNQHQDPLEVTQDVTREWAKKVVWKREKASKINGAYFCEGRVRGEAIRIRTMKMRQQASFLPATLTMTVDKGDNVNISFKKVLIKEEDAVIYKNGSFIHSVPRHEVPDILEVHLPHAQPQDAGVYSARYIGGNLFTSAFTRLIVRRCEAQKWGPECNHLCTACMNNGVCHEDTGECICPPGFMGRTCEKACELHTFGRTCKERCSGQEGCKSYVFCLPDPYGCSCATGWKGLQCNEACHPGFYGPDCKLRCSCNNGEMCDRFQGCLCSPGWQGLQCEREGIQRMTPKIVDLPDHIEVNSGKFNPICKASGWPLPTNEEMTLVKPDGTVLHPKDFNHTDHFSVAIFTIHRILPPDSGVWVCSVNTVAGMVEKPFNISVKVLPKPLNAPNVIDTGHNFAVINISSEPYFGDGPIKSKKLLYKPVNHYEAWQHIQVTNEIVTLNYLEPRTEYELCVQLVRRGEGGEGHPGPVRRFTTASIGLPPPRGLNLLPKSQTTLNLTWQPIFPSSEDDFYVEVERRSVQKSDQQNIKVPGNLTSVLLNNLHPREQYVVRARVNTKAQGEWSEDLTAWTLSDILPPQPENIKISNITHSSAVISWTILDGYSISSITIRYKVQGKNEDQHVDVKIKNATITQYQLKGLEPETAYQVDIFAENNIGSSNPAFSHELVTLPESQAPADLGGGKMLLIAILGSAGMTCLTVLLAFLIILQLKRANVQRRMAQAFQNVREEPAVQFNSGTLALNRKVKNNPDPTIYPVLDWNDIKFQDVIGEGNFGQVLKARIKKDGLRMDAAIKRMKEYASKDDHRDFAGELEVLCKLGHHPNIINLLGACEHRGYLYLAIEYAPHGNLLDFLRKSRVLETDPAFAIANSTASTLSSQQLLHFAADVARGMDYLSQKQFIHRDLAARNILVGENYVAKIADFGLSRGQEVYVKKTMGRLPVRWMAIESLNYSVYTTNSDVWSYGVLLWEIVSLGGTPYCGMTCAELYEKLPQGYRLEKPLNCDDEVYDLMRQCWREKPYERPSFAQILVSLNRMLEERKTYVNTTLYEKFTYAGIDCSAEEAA
row,IC50,SMILES
1,< 50 nM,"CCc1cccc(NC(=O)N2CCN(c3nccnc3OCc3ccnc(N)n3)CC2)c1 [Example 201, 4-(3-{[(2-aminopyrimidin-4-yl)methyl]oxy}pyrazin-2-yl)-N-(3-ethylphenyl)piperazine-1-carboxamide]"
2,≥ 10000 nM,"CCOc1ccccc1NC(=O)N1CCN(c2nsnc2OCc2ccnc(N)n2)CC1 [Example 264, 4-(4-{[(2-aminopyrimidin-4-yl)methyl]oxy}-1,2,5-thiadiazol-3-yl)-N-[2-(ethyloxy)phenyl]piperazine-1-carboxamide]"
3,< 50 nM,"CCc1cccc(NC(=O)N2CCN(c3nc(Cl)ccc3OCc3ccnc(N)n3)CC2)c1 [Example 237, 4-(3-{[(2-aminopyrimidin-4-yl)methyl]oxy}-6-chloropyridin-2-yl)-N-(3-ethylphenyl)piperazine-1-carboxamide]"
4,50 to 1000 nM,O=C(NCC1CCN(c2nsnc2OCc2ccncc2)CC1)Nc1cc(C(F)(F)F)cc(C(F)(F)F)c1 [Example 28]
5,50 to 1000 nM,"C[C@@H]1CN(c2nsnc2OCc2ccncc2)CCN1C(=O)Nc1cccc(C(F)(F)F)c1 [Example 53, (2R)-2-methyl-4-{4-[(pyridin-4-ylmethyl)oxy]-1,2,5-thiadiazol-3-yl}-N-[3-(trifluoromethyl)phenyl]piperazine-1-carboxamide]"
6,50 to 1000 nM,"O=C(Nc1cc(C(F)(F)F)cc(C(F)(F)F)c1)N1CCN(c2nccnc2CCc2ccncc2)CC1 [Example 96, N-[3,5-bis(trifluoromethyl)phenyl]-4-[3-(2-pyridin-4-ylethyl)pyrazin-2-yl]piperazine-1-carboxamide]"
7,50 to 1000 nM,"CC1CN(c2nsnc2OCc2ccncc2)CCN1C(=O)Nc1cccc(C(F)(F)F)c1 (centres unmarked) [Example 41, 2-methyl-4-{4-[(pyridin-4-ylmethyl)oxy]-1,2,5-thiadiazol-3-yl}-N-[3-(trifluoromethyl)phenyl]piperazine-1-carboxamide]"
8,< 50 nM,"O=C(Nc1cc(COc2nsnc2N2CCN(C(=O)Nc3cc(C(F)(F)F)cc(C(F)(F)F)c3)CC2)ccn1)OCCN1CCOCC1 [Example 141, 2-morpholin-4-ylethyl {4-[({4-[4-({[3,5-bis(trifluoromethyl)phenyl]amino}carbonyl)piperazin-1-yl]-1,2,5-thiadiazol-3-yl}oxy)methyl]pyridin-2-yl}carbamate]"
9,< 50 nM,"CCc1cc(Cl)cc(NC(=O)N2CCN(c3nccnc3OCc3ccnc(N)n3)CC2)c1 [Example 202, 4-(3-{[(2-aminopyrimidin-4-yl)methyl]oxy}pyrazin-2-yl)-N-(3-chloro-5-ethylphenyl)piperazine-1-carboxamide]"
10,50 to 1000 nM,"O=C(Nc1cc(C(F)(F)F)cc(C(F)(F)F)c1)NC1CCN(c2nccnc2OCc2ccncc2)C1 (centres unmarked) [Example 67, N-[3,5-bis(trifluoromethyl)phenyl]-N′-(1-{3-[(pyridin-4-ylmethyl)oxy]pyrazin-2-yl}pyrrolidin-3-yl)urea]"
11,< 50 nM,"CCc1ccc(F)c(NC(=O)N2CCN(c3ccccc3OCc3ccnc(N)n3)CC2)c1 [Example 278, 4-(2-{[(2-aminopyrimidin-4-yl)methyl]oxy}phenyl)-N-(5-ethyl-2-fluorophenyl)piperazine-1-carboxamide]"
12,50 to 1000 nM,"Nc1nccc(COc2nsnc2N2CCN(C(=O)Nc3cc(C(F)(F)F)ccc3F)CC2)n1 [Example 232, 4-(4-{[(2-aminopyrimidin-4-yl)methyl]oxy}-1,2,5-thiadiazol-3-yl)-N-[2-fluoro-5-(trifluoromethyl)phenyl]piperazine-1-carboxamide]"
13,50 to 1000 nM,"O=C(Nc1cc(C(F)(F)F)cc(C(F)(F)F)c1)N1CCN(c2nsnc2OCc2ccnc(NCc3ccccc3)c2)CC1 [Example 115, N-[3,5-bis(trifluoromethyl)phenyl]-4-{4-[({2-[(phenylmethyl)amino]pyridin-4-yl}methyl)oxy]-1,2,5-thiadiazol-3-yl}piperazine-1-carboxamide]"
14,50 to 1000 nM,CCc1cccc(NC(=O)N2CCN(c3nsnc3OCc3ccncc3)CC2)c1 [Example 7]
15,50 to 1000 nM,"COc1cccc(NC(=O)N2CCN(c3ncccc3OCc3ccnc(N)n3)CC2)c1 [Example 166, 4-(3-{[(2-aminopyrimidin-4-yl)methyl]oxy}pyridin-2-yl)-N-[3-(methyloxy)phenyl]piperazine-1-carboxamide]"
16,< 50 nM,"COC(=O)Nc1nccc(COc2nsnc2N2CCN(C(=O)Nc3cc(C(F)(F)F)cc(C(F)(F)F)c3)CC2)n1 [Example 131, methyl {4-[({4-[4-({[3,5-bis(trifluoromethyl)phenyl]amino}carbonyl)piperazin-1-yl]-1,2,5-thiadiazol-3-yl}oxy)methyl]pyrimidin-2-yl}carbamate]"

row,IC50,SMILES
1,50 to 1000 nM,"CC1CN(c2nc3ccccc3nc2OCc2ccncc2)CCN1C(=O)Nc1cccc(C(F)(F)F)c1 (centres unmarked) [Example 76, 2-methyl-4-{3-[(pyridin-4-ylmethyl)oxy]quinoxalin-2-yl}-N-[3-(trifluoromethyl)phenyl]piperazine-1-carboxamide]"
2,≥ 10000 nM,"CNC(=O)N1CCN(c2ncccc2OCc2ccnc(N)n2)CC1 [Example 204, 4-(3-{[(2-aminopyrimidin-4-yl)methyl]oxy}pyridin-2-yl)-N-methylpiperazine-1-carboxamide]"
3,< 50 nM,"O=C(CN1CCCC1)Nc1cc(COc2nsnc2N2CCN(C(=O)Nc3cc(C(F)(F)F)cc(C(F)(F)F)c3)CC2)ccn1 [Example 154, N-[3,5-bis(trifluoromethyl)phenyl]-4-{4-[({2-[(pyrrolidin-1-ylacetyl)amino]pyridin-4-yl}methyl)oxy]-1,2,5-thiadiazol-3-yl}piperazine-1-carboxamide]"
4,< 50 nM,"CCc1cccc(NC(=O)N2CCN(c3ncccc3OCc3ccnc(N)n3)CC2)c1 [Example 144, 4-(3-{[(2-aminopyrimidin-4-yl)methyl]oxy}pyridin-2-yl)-N-(3-ethylphenyl)piperazine-1-carboxamide]"
5,1000 to 10000 nM,"O=C(Nc1cccc(C(F)(F)F)c1)N1CCCN(c2nsnc2OCc2ccncc2)CC1 [Example 45, 4-{4-[(pyridin-4-ylmethyl)oxy]-1,2,5-thiadiazol-3-yl}-N-[3-(trifluoromethyl)phenyl]-1,4-diazepane-1-carboxamide]"
6,< 50 nM,"Nc1nccc(COc2ccc(Cl)nc2N2CCN(C(=O)Nc3cc(C(F)(F)F)cc(C(F)(F)F)c3)CC2)n1 [Example 244, 4-(3-{[(2-aminopyrimidin-4-yl)methyl]oxy}-6-chloropyridin-2-yl)-N-[3,5-bis(trifluoromethyl)phenyl]piperazine-1-carboxamide]"
7,< 50 nM,"CCc1cc(CC)cc(NC(=O)N2CCN(c3ccccc3OCc3ccnc(N)n3)CC2)c1 [Example 279, 4-(2-{[(2-aminopyrimidin-4-yl)methyl]oxy}phenyl)-N-(3,5-diethylphenyl)piperazine-1-carboxamide]"
8,1000 to 10000 nM,"O=C(Nc1cccc(C(F)(F)F)c1)NC1CCN(c2nsnc2OCc2ccncc2)C1 (centres unmarked) [Example 49, N-(1-{4-[(pyridin-4-ylmethyl)oxy]-1,2,5-thiadiazol-3-yl}pyrrolidin-3-yl)-N′-[3-(trifluoromethyl)phenyl]urea]"
9,50 to 1000 nM,"CC1CN(c2nsnc2OCc2ccncc2)CCN1C(=O)Cc1cc(C(F)(F)F)ccc1C(F)(F)F (centres unmarked) [Example 61, 1-{[2,5-bis(trifluoromethyl)phenyl]acetyl}-2-methyl-4-{4-[(pyridin-4-ylmethyl)oxy]-1,2,5-thiadiazol-3-yl}piperazine]"
10,50 to 1000 nM,"COc1cccc(NC(=O)N2CCN(c3nsnc3OCc3ccnc(N)n3)CC2)c1 [Example 259, 4-(4-{[(2-aminopyrimidin-4-yl)methyl]oxy}-1,2,5-thiadiazol-3-yl)-N-[3-(methyloxy)phenyl]piperazine-1-carboxamide]"
11,< 50 nM,"CCc1cc(CC)cc(NC(=O)N2CCN(c3ncccc3OCc3ccnc(N)n3)CC2)c1 [Example 189, 4-(3-{[(2-aminopyrimidin-4-yl)methyl]oxy}pyridin-2-yl)-N-(3,5-diethylphenyl)piperazine-1-carboxamide]"
12,50 to 1000 nM,"N#Cc1nc(OCc2ccncc2)c(N2CCN(C(=O)Nc3cc(C(F)(F)F)cc(C(F)(F)F)c3)CC2)nc1C#N [Example 90, N-[3,5-bis(trifluoromethyl)phenyl]-4-{5,6-dicyano-3-[(pyridin-4-ylmethyl)oxy]pyrazin-2-yl}piperazine-1-carboxamide]"
13,< 50 nM,"Nc1cc(COc2nsnc2N2CCN(C(=O)Nc3cc(C(F)(F)F)cc(C(F)(F)F)c3)CC2)ccn1 [Example 99, 4-(4-{[(2-aminopyridin-4-yl)methyl]oxy}-1,2,5-thiadiazol-3-yl)-N-[3,5-bis(trifluoromethyl)phenyl]piperazine-1-carboxamide]"
14,< 50 nM,"Nc1nccc(COc2nccnc2N2CCN(C(=O)Nc3cc(F)cc(C(F)(F)F)c3)CC2)n1 [Example 218, 4-(3-{[(2-aminopyrimidin-4-yl)methyl]oxy}pyrazin-2-yl)-N-[3-fluoro-5-(trifluoromethyl)phenyl]piperazine-1-carboxamide]"
15,< 50 nM,"Nc1nccc(COc2nsnc2N2CCN(C(=O)Nc3cc(Cl)cc(C(F)(F)F)c3)CC2)n1 [Example 240, 4-(4-{[(2-aminopyrimidin-4-yl)methyl]oxy}-1,2,5-thiadiazol-3-yl)-N-[3-chloro-5-(trifluoromethyl)phenyl]piperazine-1-carboxamide]"
16,50 to 1000 nM,"O=C(Nc1cccc(C(F)(F)F)c1)C1CCN(c2nsnc2OCc2ccncc2)CC1 [Example 37, 1-{4-[(pyridin-4-ylmethyl)oxy]-1,2,5-thiadiazol-3-yl}-N-[3-(trifluoromethyl)phenyl]piperidine-4-carboxamide]"
